Results on eight compounds are retold here after patent US20260194517A1, “FRUCTOSE-1,6-DIPHOSPHATE OPTICAL PROBE, AND PREPARATION METHOD THEREFOR AND USE THEREOF” (EAST CHINA UNIVERSITY OF SCIENCE AND TECHNOLOGY, priority 2022, published 2026).

The test system of the first assay is H1299 cells. The assay can be described thus: Dynamic monitoring of cytoplasmic fructose-1,6-bisphosphate in H1299 cells expressing the optical probe. The assay is classed as cell-based. The settings on record: 0.5 mM 3-BrPA in HBSS, 30-min period, H1299 cells with cytoplasm-expressed probe. As for the experimental part:
• 1. The pCDNA3.1+-based fructose-1,6-bisphosphate optical probe plasmid was transfected into HEK293 cells by the transfection reagent Lipofectamine2000 (Invitrogen), and cultured in a cell incubator at 37° C., 5% CO2. Fluorescence detection was performed 24-36 h after the exogenous gene was fully expressed. • 2. After induction of expression, adherent HEK293 cells were washed three times with PBS and placed in HBSS solution for fluorescence microscopy and microplate reader assays, respectively.
After H1299 cells were transfected with the cytoplasm-expressed optical probe plasmid for 36 h, they were washed with PBS and placed in HBSS solutions containing 0 mM 3-BrPA and 0.5 mM 3-BrPA, and the changes in the ratio of the fluorescence intensity at 528 nm emission and at 420 nm excitation and the fluorescence intensity at 528 nm emission at 485 nm excitation were detected over a 30-min period.
For `O=C(O)C(=O)CBr` [3-BrPA], the “ratio of 420/485, maximum relative to the initial value” is 3.7 times the initial value.

Test system in a further assay: not listed separately
The assay can be described thus: Screening of linker-mutated cpYFP optical probes for response to fructose-1,6-bisphosphate. The class given is biochemical. The settings on record: linker mutants of CggR(88-340)-cpYFP; 485 nm/420 nm signal ratio of sample relative to control. The source says: The invention also provides use of fructose-1,6-bisphosphate optical probes in real-time localization, quantitative detection and high-throughput compound screening of fructose-1,6-bisphosphate. In one aspect, the fructose-1,6-bisphosphate optical probe, preferably linked with signal peptides at different parts of the cell, is transferred into cells for real-time localization of fructose-1,6-bisphosphate by detecting the strength of fluorescence signals in cells, corresponding quantitative detection of fructose-1,6-bisphosphate is performed by a fructose-1,6-bisphosphate standard titration curve. […] In the embodiment involving cpYFP, the ratio is the ratio of the ratio of the sample's 485-nanometer fluorescence signal to the 420-nanometer fluorescence signal to the corresponding ratio of the control. The fructose-1,6-bisphosphate standard titration curve of the present invention is drawn based on the fluorescence signal of the fructose-1,6-bisphosphate optical probe under different concentrations of fructose-1,6-bisphosphate. The fructose-1,6-bisphosphate optical probe described herein is directly transferred into cells, which is more accurate without time-consuming sample processing process during the real-time localization and quantitative detection of fructose-1,6-bisphosphate. When the fructose-1,6-bisphosphate optical probe of the present invention is used for high-throughput compound screening, different compounds are added to the cell culture fluid, and the change of fructose-1,6-bisphosphate content is measured, so as to screen out compounds that affect the change of fructose-1,6-bisphosphate content.
• 1. An expression vector (such as a pCDF-based fructose-1,6-bisphosphate optical probe expression vector) was transform into BL21 (DE3) cells, and invert-cultured overnight, and clones were picked from the plate into a 250 ml Erlenmeyer flask, and placed in a 37° C. shaker, cultured at 220 rpm to OD=0.4-0.8, add 1/1000 (v/v) IPTG (1 M), and induced expression at 18° C. for 24-36 h. • 2. After induction, cells were harvested by centrifugation at 4000 rpm for 30 min, resuspended in 50 mM phosphate buffer and disrupted ultrasonically until the broth were clear, centrifuged at 9600 rpm at 4° C. for 20 min. • 3. The centrifuged supernatant was purified by a self-packed nickel-column affinity chromatography column to obtain the protein, and the protein after nickel-column affinity chromatography was then passed through a self-packed desalting column to obtain the protein dissolved in 100 mM HEPES buffer (pH 7.4). • 4. After the purified protein was identified by SDS-PAGE, the probe was diluted with assay buffer (100 mM HEPES, 100 mM NaCl, pH 7.4) into a protein solution with a final concentration of 0.2-5 μM. Fructose-1,6-bisphosphate was prepared as a stock solution at a final concentration of 50 mM with assay buffer (100 mM HEPES, 100 mM NaCl, pH 7.4). • 5. 100 μl of 1 μM protein solution was taken and incubated at 37° C. for 10 min, […], and measured the fluorescence intensity of the protein at 528 nm after excitation at 420 nm and fluorescence intensity of the protein at 528 nm after excitation at 485 nm. The fluorescence excitation and emission measurement of the samples were completed by a multifunctional fluorescence microplate reader. • 6.100 μl of 1 μM protein solution was taken, incubated at 37° C. for 10 min, tryptophan was added, and measured the absorption and fluorescence spectra of the protein. The determination of the absorption spectrum and fluorescence spectrum of the sample was completed by a spectrophotometer and a fluorescence spectrophotometer.
Optical probe mutants were constructed based on PCDF-CggR(88-340)-176/177-CPYFP, PCDF-CggR(88-340)-176/178-CPYFP, PCDF-CggR(88-340)-177/181-CPYFP, PCDF-CggR(88-340)-179/180-CPYFP, PCDF-CggR(88-340)-182/184-CPYFP, PCDF-CggR(88-340)-182/185-CPYFP, PCDF-CggR(88-340)-203/206-CPYFP, PCDF-CggR(88-340)-203/207-CPYFP and PCDF-CggR-203/208(88-340)-CPYFP. […]
For the compound “Serial number 17: cpYFP at 182/184 of CggR(88-340); CggR: N184V/Q185P/D181E/V182G/G177L CPYFP: Y1I; SEQ ID NO: 15”, the “Standardized fluorescence signal ratio” value came out at 12.
For “Serial number 8: cpYFP at 176/177 of CggR(88-340); CggR: G177M/L178N/Q185T; SEQ ID NO: 12”, the “Standardized fluorescence signal ratio” value worked out at 4.
The same measure, in the same setting: the figure for “Serial number 20: cpYFP at 182/184 of CggR(88-340); CggR: N184V/Q185P/D181E/V182G CPYFP: Y1V; SEQ ID NO: 16” is 9.6; for “Serial number 4: cpYFP at 176/177 of CggR(88-340); CggR: G177M/L178N; SEQ ID NO: 10” it is 4.54.
Take “Serial number 9: cpYFP at 176/177 of CggR(88-340); CggR: G177M/L178N/Q185D; SEQ ID NO: 13”: the “Standardized fluorescence signal ratio” value came out at 4.17.
As for “Serial number 16: cpYFP at 182/184 of CggR(88-340); CggR: N184V/Q185P/D181E/V182G/G177L CPYFP: Y1V; SEQ ID NO: 14”, the “Standardized fluorescence signal ratio” value turned out to be 11.6.
As to “Serial number 7: cpYFP at 176/177 of CggR(88-340); CggR: G177M/L178N/Q185A; SEQ ID NO: 11”, the “Standardized fluorescence signal ratio” value is reported as 4.
